Assays:
[1] = 101 kPa, Liquid; for speed of sound: Single path-length method; for mass density: Vibrating tube method
[2] = refractive index (Na D-line) (dimensionless); details: 101 kPa, Liquid, Standard Abbe refractometry
[3] = xn = mol fraction of the nth substance listed; details: 101 kPa, Liquid, x2 = 0; for speed of sound: Single path-length method; for mass density: Vibrating tube method
[4] = refractive index (Na D-line) (dimensionless); xn = mol fraction of the nth substance listed; details: 101 kPa, Liquid, Standard Abbe refractometry, x2 = 0

CCC(C)O (stereo not given) [butan-2-ol]
Details | mass density, [1] [kg/m3] | refractive index, [2] | speed of sound, [1] [m/s]
298.15 K | 802.4 | 1.39474 | 1212
308.15 K | 793.86 | 1.39011 | 1175.8
318.15 K | 785.26 | 1.38547 | 1139.5
328.15 K | 775.73 | 1.38022 | 1102.3
338.15 K | 765.75 | 1.37621 | 1064.5

CC(C)O [propan-2-ol]
Details | mass density, [1] [kg/m3] | refractive index, [2] | speed of sound, [1] [m/s]
298.15 K | 781.1 | 1.37522 | 1138.5
308.15 K | 772.51 | 1.37083 | 1103.2
318.15 K | 763.51 | 1.36622 | 1068.1
328.15 K | 754.19 | 1.36146 | 1032.6
338.15 K | 743.66 | 1.35637 | 997.33

CCC(C)O (stereo not given) [butan-2-ol] + CCCC(C)=O
Details | mass density, [3] [kg/m3] | refractive index, [4] | speed of sound, [3] [m/s]
298.15 K | 802.4 | 1.39474 | 1212
308.15 K | 793.86 | 1.39011 | 1175.8
318.15 K | 785.26 | 1.38547 | 1139.5
328.15 K | 775.73 | 1.38022 | 1102.3
338.15 K | 765.75 | 1.37621 | 1064.5

CC(C)O [propan-2-ol] + CCCC(C)=O
Details | mass density, [3] [kg/m3] | refractive index, [4] | speed of sound, [3] [m/s]
298.15 K | 781.1 | 1.37522 | 1138.5
308.15 K | 772.51 | 1.37083 | 1103.2
318.15 K | 763.51 | 1.36622 | 1068.1
328.15 K | 754.19 | 1.36146 | 1032.6
338.15 K | 743.66 | 1.35637 | 997.33

CCCC(C)=O [pentan-2-one]
Details | mass density, [1] [kg/m3] | refractive index, [2] | speed of sound, [1] [m/s]
298.15 K | 802.09 | 1.38782 | 1216
308.15 K | 792.32 | 1.38284 | 1174.4
318.15 K | 782.44 | 1.37782 | 1133.3
328.15 K | 772.43 | 1.3728 | 1093.6
338.15 K | 762.27 | 1.36764 | 1053.8

Reference: the NIST ThermoML archive (doi:10.1021/acs.jced.8b00547)
